{
  "source": "patent US4195171A",
  "about": "“Derivatives of an antibiotic XK-62-2 and process for the production thereof” (Abbott Laboratories, priority 1975, dated 1980)",
  "origin": "cited, not measured here",
  "conditions": "cited from earlier work",
  "data": [
    {"smiles": "CNCC1CCC(N)C(OC2C(N)CC(N)C(OC3OCC(C)(O)C(NC)C3O)C2O)O1", "note": "(centres unmarked) [XK-62-2]", "values": [
      {"measurement": "solubility in acetone", "setting": "acetone", "value": "slightly soluble"},
      {"measurement": "solubility in benzene", "setting": "benzene", "value": "insoluble"},
      {"measurement": "solubility in chloroform", "setting": "chloroform", "value": "insoluble"},
      {"measurement": "solubility in ethanol", "setting": "ethanol", "value": "slightly soluble"},
      {"measurement": "solubility in ethyl acetate", "setting": "ethyl acetate", "value": "insoluble"},
      {"measurement": "solubility in methanol", "setting": "methanol", "value": "freely soluble"},
      {"measurement": "solubility in n-hexane", "setting": "n-hexane", "value": "insoluble"},
      {"measurement": "solubility in water", "setting": "water", "value": "freely soluble"}
    ]}
  ]
}
